Measured values from US10087188B2, “Benzamide imidazopyrazine Btk inhibitors” (MERCK SHARP & DOHME CORP., priority 2014, dated 2018).
Like-named read-outs stand apart in the source and are kept apart here.

Legend:
[1] = molecular target: BTK enzyme (recombinant full-length BTK, hBTK) (Homo sapiens (Human), UniProt Q06187); assay: Btk enzyme activity assay, LANCE TR-FRET; type: biochemical; conditions: 50 pM hBTK, 2 μM biotin-A5-peptide, 25 μM ATP; 60 minute compound & enzyme incubation; read-out: BTK binding IC50
BTK enzyme (recombinant full-length BTK, hBTK), sequence (Q06187 whole entry): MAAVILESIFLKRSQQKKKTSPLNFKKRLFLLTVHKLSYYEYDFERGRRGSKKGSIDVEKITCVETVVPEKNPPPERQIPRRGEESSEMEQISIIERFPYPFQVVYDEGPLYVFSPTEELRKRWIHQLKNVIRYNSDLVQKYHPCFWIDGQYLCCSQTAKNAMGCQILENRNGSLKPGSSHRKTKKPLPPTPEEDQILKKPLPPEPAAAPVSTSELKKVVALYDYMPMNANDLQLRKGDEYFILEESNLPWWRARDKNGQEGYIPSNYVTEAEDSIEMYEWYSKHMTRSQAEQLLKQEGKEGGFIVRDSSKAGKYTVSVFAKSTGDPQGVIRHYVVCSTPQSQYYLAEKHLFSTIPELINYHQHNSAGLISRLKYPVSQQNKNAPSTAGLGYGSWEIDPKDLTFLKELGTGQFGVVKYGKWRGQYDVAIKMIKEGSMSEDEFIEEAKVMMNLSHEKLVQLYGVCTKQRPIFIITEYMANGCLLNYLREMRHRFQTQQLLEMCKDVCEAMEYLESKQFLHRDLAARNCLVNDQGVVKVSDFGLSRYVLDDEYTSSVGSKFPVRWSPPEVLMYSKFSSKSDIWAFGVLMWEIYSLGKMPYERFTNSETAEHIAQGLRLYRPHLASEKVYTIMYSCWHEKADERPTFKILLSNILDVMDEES
Protocol: Btk Enzyme Activity Assay Methods
BTK enzymatic activity was determined with the LANCE (Lanthanide Chelate Excite) TR-FRET (Time-resolved fluorescence resonance energy transfer) assay. […] After 60 minutes incubation with detection reagents, reaction plates were read on a PerkinElmer EnVision plate reader using standard TR-FRET protocol.

HeLa cells = assay: [3H] Adenosine uptake assay; type: cell-based; conditions: accumulation of tritiated adenosine into HeLa cells, compound concentration range 10 μM to 0.032 nM, read-out: ADU inhibition IC50 (adenosine uptake inhibition potency)
Procedure, shortened: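 Accumulation of tritiated adenosine in adherent HeLa cells, detected by scintillant-plate coincidence counting, gives IC50 via 4-parameter robust fit. Compound (constant 0.25% DMSO) applied 30 min ahead, then 60 min radiolabel exposure (added from 500 nM solution), ambient conditions, HBSS with 5% FBS.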

Structure (SMILES)	IC50 [1] [nM]	IC50 (HeLa cells; Homo sapiens, HeLa) [nM]	IC50 (HeLa cells) [nM]
CCOc1cc(C(=O)Nc2cc(C3CC3)ccn2)cc(F)c1-c1nc([C@@]2(C)CC[C@](C)(C(=O)O)C2)n2ccnc(N)c12 [Example 123, (1S,3S)-3-(8-amino-1-{4-[(4-cyclopropylpyridin-2-yl)carbamoyl]-2-ethoxy-6-fluorophenyl}imidazo [1,5-a]pyrazin-3-yl)-1,3-dimethylcyclopentane carboxylic acid]	0.57	10000	–
CCOc1cc(C(=O)Nc2cc(C(F)(F)F)ccn2)ccc1-c1nc([C@@H]2CCC[C@@](C(=O)O)(C(C)C)C2)n2ccnc(N)c12 [Example 88, (1S,3R)-3-[8-amino-1-(2-ethoxy-4-{[4-(trifluoromethyl)pyridin-2-yl]carbamoyl}phenyl)imidazo[1,5-a]pyrazin-3-yl]-1-(1-methylethyl) cyclohexane-carboxylic acid]	38.5	3690	–
CCOc1cc(C(=O)Nc2cc(C(F)(F)F)ccn2)cc(F)c1-c1nc([C@@H]2CC[C@](C)(C(=O)O)C2(C)C)n2c(F)cnc(N)c12 [Example 118, (1S,3R)-3-[8-amino-1-(2-ethoxy-6-fluoro-4-{[4-(trifluoromethyl)pyridin-2-yl]carbamoyl}phenyl)-5-fluoroimidazo[1,5-a]pyrazin-3-yl]-1,2,2-trimethylcyclopentane carboxylic acid]	1.3	10000	–
CCOc1cc(C(=O)Nc2cc(C(F)(F)F)ccn2)cc(F)c1-c1nc([C@]2(C)CC[C@@](C)(C(=O)O)CC2)n2ccnc(N)c12 [Example 119, trans-4-[8-amino-1-(2-ethoxy-6-fluoro-4-{[4-(trifluoromethyl)pyridin-2-yl]carbamoyl}phenyl)imidazo[1,5-a]pyrazin-3-yl]-1,4-dimethylcyclohexane-carboxylic acid]	0.96	10000	–
CC1(C(=O)O)CCC(c2nc(-c3ccc(C(=O)Nc4cc(C5CC5)ccn4)cc3F)c3c(N)ncc(Cl)n23)CC1 (centres unmarked) [Example 164, 4-(8-amino-5-chloro-1-{4-[(4-cyclopropylpyridin-2-yl)carbamoyl]-2-fluorophenyl}imidazo [1,5-a]pyrazin-3-yl)-1-methylcyclohexane-carboxylic acid]	33	6170	–
C[C@]1(C(=O)O)CC[C@H](N2CCO[C@@H](c3nc(-c4ccc(C(=O)Nc5cc(C(F)F)ccn5)cc4)c4c(N)ncc(Cl)n34)C2)CC1 (stereo in doubt) [Example 196, trans-4-{(2R)-2-[8-amino-5-chloro-1-(4-{[4-(difluoromethyl)pyridin-2-yl]carbamoyl}phenyl)imidazo [1,5-a]pyrazin-3-yl]morpholin-4-yl}-1-methylcyclohexanecarboxylic acid]	7.5	–	4440
C[C@]1(C(=O)O)CC[C@H](N2CCO[C@@H](c3nc(-c4ccc(C(=O)Nc5cc(C6CC6)ccn5)cc4F)c4c(N)nccn34)C2)CC1 [Example 197, trans-4-[(2R)-2-(8-amino-1-{4-[(4-cyclopropylpyridin-2-yl)carbamoyl]-2-fluorophenyl}imidazo[1,5-a]pyrazin-3-yl)morpholin-4-yl]-1-methylcyclohexanecarboxylic acid]	1.2	2950	–
Nc1nccn2c(C34CCC(C(=O)O)(CC3)CC4)nc(-c3ccc(C(=O)Nc4cc(C(F)(F)F)ccn4)cc3F)c12 [Example 170, 4-[8-amino-1-(2-fluoro-4-{[4-(trifluoromethyl)pyridin-2-yl]carbamoyl}phenyl)imidazo[1,5-a]pyrazin-3-yl]bicyclo[2.2.2] octane-1-carboxylic acid]	0.16	622	–
CC1(C(=O)O)CCC(N2CCC[C@@H](c3nc(-c4ccc(C(=O)Nc5cc(C(F)(F)F)ccn5)cc4F)c4c(N)nccn34)C2)CC1 (stereo partly drawn) [Example 182, 4-{(3R)-3-[8-amino-1-(2-fluoro-4-{[4-(trifluoromethyl)pyridin-2-yl]carbamoyl}phenyl)imidazo [1,5-a]pyrazin-3-yl]piperidin-1-yl}-1-methylcyclohexanecarboxylic acid]	1.9	179	–

Next, values leading:

IC50 [1] [nM]	IC50 (HeLa cells; Homo sapiens, HeLa) [nM]	IC50 (HeLa cells) [nM]	Structure (SMILES)
2.3	5540	–	CC1(C(=O)O)CCC(c2nc(-c3ccc(C(=O)Nc4cc(C(F)(F)F)ccn4)cc3)c3c(N)ncc(Cl)n23)CC1 (centres unmarked) [Example 162, 4-[8-amino-5-chloro-1-(4-{[4-(trifluoromethyl)pyridin-2-yl]carbamoyl}phenyl)imidazo[1,5-a]pyrazin-3-yl]-1-methylcyclohexane-carboxylic acid]
0.74	1450	–	C[C@]1(C(=O)O)CC[C@](C)(c2nc(-c3ccc(C(=O)Nc4cc(C(F)(F)F)ccn4)cc3)c3c(N)nccn32)CC1 [Example 30, trans-4-(8-amino-1-(4-((4-(trifluoromethyl)pyridin-2-yl)carbamoyl)phenyl)imidazo[1,5-a]pyrazin-3-yl)-1,4-dimethylcyclohexanecarboxylic acid]
57.2	–	10000	CC(C)C1(C(=O)O)CCC(C)(c2nc(-c3ccc(C(=O)Nc4cc(C(F)(F)F)ccn4)cc3)c3c(N)nccn23)C1 (centres unmarked) [Example 145, 3-[8-amino-1-(4-{[4-(trifluoromethyl)pyridin-2-yl]carbamoyl}phenyl)imidazo[1,5-a]pyrazin-3-yl]-3-methyl-1-(1-methylethyl) cyclopentane-carboxylic acid]
0.62	2870	–	Nc1nccn2c([C@H]3CC[C@@H](C(=O)N4CC[C@@H](C(=O)O)C4)C3)nc(-c3ccc(C(=O)Nc4cc(C(F)(F)F)ccn4)cc3)c12 [Example 19, (3R)-1-({(1R,3S)-3-[8-amino-1-(4-{[4-(trifluoromethyl)pyridin-2-yl]carbamoyl}phenyl)imidazo[1,5-a]pyrazin-3-yl]cyclopentyl}carbonyl)pyrrolidine-3-carboxylic acid]
0.26	3700	–	Nc1nccn2c([C@H]3CC[C@@H](CC(=O)O)C3)nc(-c3ccc(C(=O)Nc4cc(C(F)(F)F)ccn4)cc3)c12 [Example 50, {(1R,3S)-3-[8-amino-1-(4-{[4-(trifluoromethyl)pyridin-2-yl]carbamoyl}phenyl)imidazo[1,5-a]pyrazin-3-yl]cyclopentyl}acetic acid]
1.9	10000	–	Nc1nccn2c([C@H]3CC[C@@H](C(=O)N4CCC[C@H]4C(=O)O)C3)nc(-c3ccc(C(=O)Nc4cc(C(F)(F)F)ccn4)cc3)c12 [Example 17, 1-({(1R,3S)-3-[8-amino-1-(4-{[4-(trifluoromethyl)pyridin-2-yl]carbamoyl}phenyl)imidazo[1,5-a]pyrazin-3-yl]cyclopentyl}carbonyl)-L-proline]
0.61	3200	–	CCOc1cc(C(=O)Nc2cc(C(F)(F)F)ccn2)ccc1-c1nc([C@H]2CC[C@@](C)(C(=O)O)C2(C)C)n2ccnc(N)c12 [Example 72, (1R,3S)-3-[8-amino-1-(2-ethoxy-4-{[4-(trifluoromethyl)pyridin-2-yl]carbamoyl}phenyl)imidazo[1,5-a]pyrazin-3-yl]-1,2,2-trimethylcyclopentane carboxylic acid]
0.59	5200	–	CC1(C)[C@H](c2nc(-c3ccc(C(=O)Nc4cc(C(F)(F)F)ccn4)cc3Cl)c3c(N)nccn23)CC[C@]1(C)C(=O)O [Example 129, (1S,3R)-3-[8-amino-1-(2-chloro-4-{[4-(trifluoromethyl)pyridin-2-yl]carbamoyl}phenyl)imidazo[1,5-a]pyrazin-3-yl]-1,2,2-trimethylcyclopentane carboxylic acid]
4.4	6800	–	Nc1nccn2c([C@@H]3CCN[C@@H](C(=O)O)C3)nc(-c3ccc(C(=O)Nc4cc(C(F)(F)F)ccn4)cc3)c12 [Example 33, (2R,4R)-4-[8-amino-1-(4-{[4-(trifluoromethyl)pyridin-2-yl]carbamoyl}phenyl)imidazo[1,5-a]pyrazin-3-yl]piperidine-2-carboxylic acid]
1.7	6110	–	Nc1nccn2c(-c3ccc(C(=O)O)c(F)c3)nc(-c3ccc(C(=O)Nc4cc(C(F)(F)F)ccn4)cc3)c12 [Example 25, 4-[8-amino-1-(4-{[4-(trifluoromethyl)pyridin-2-yl]carbamoyl}phenyl)imidazo[1,5-a]pyrazin-3-yl]-2-fluorobenzoic acid]
5.2	10000	–	CCOc1cc(C(=O)Nc2cc(C(F)(F)F)ccn2)ccc1-c1nc([C@H]2C[C@H]3CC[C@@H](C2)[C@H]3C(=O)O)n2ccnc(N)c12 [Example 104, (3-endo,8-syn)-3-[8-amino-1-(2-ethoxy-4-{[4-(trifluoromethyl)pyridin-2-yl]carbamoyl}phenyl)imidazo[1,5-a]pyrazin-3-yl]bicyclo[3.2.1] octane-8-carboxylic acid]
0.29	4000	–	Nc1nccn2c([C@H]3CC[C@H](CC(=O)O)C3)nc(-c3ccc(C(=O)Nc4cc(C(F)(F)F)ccn4)cc3)c12 [Example 51, {(1S,3S)-3-[8-amino-1-(4-{[4-(trifluoromethyl)pyridin-2-yl]carbamoyl}phenyl)imidazo[1,5-a]pyrazin-3-yl]cyclopentyl}acetic acid]
1.4	–	10000	CC(C)(C(=O)O)C1CCC(c2nc(-c3ccc(C(=O)Nc4cc(C(F)(F)F)ccn4)cc3)c3c(N)nccn23)C1 (centres unmarked) [Example 94, 2-{3-[8-amino-1-(4-{[4-(trifluoromethyl)pyridin-2-yl]carbamoyl}phenyl)imidazo[1,5-a]pyrazin-3-yl]cyclopentyl}-2-methylpropanoic acid]
